In publication PMC2645951 (Bioconjugate chemistry, 2008):
Read-outs that look alike come from different tables or passages of the source. Where a SMILES comes first, the peptide text is derived from it. The star is where a group is joined. X1 = COc1cc2c3cc1OCCOc1cc4c(cc1OC)Cc1cc5c(OC)cc1Cc1cc(c(OCc6cn(CCOCCOCCOCCOCCOCCOCCOCCOCCNC(=O)COCC(=O)*)nn6)cc1C4)OCCOc1cc(c(cc1OC)Cc1cc(c(OC)cc1C3)OCCO5)C2

Experiments:
[1] = background statement of the introduction, no reference given; cited from earlier work
[2] = Water solubility; assay type: physicochemical
[3] = system: HEK cells; conditions: over a similar range of concentrations; cited from earlier work

## COc1cc2c3cc1OCCOc1cc4c(cc1OC)Cc1cc5c(OC)cc1Cc1cc(c(OC)cc1C4)OCCOc1cc(c(cc1OC)C3)Cc1cc(OC)c(cc1C2)OCCO5 [Cryptophane-A]
[1]
  water solubility (in words): poor (low micromolar)

## COc1cc2c3cc1OCCOc1cc4c(cc1OC)Cc1cc5c(OC)cc1Cc1cc(c(OCc6cn(CCOCCOCCOCCOCCOCCOCCOCCOCCNC(=O)COCC(=O)N[C@@H](CS)C(=O)N[C@@H](CCCNC(=N)N)C(=O)NCC(=O)N[C@@H](CC(=O)O)C(=O)N[C@@H](CCCNC(=N)N)C(=O)NCC(=O)N[C@@H](CC(=O)O)C(=O)N[C@@H](CCCNC(=N)N)C(=O)NCC(=O)N[C@@H](CC(=O)O)C(=O)N[C@@H](CCCNC(=N)N)C(=O)NCC(=O)N[C@@H](CC(=O)O)C(=O)O)nn6)cc1C4)OCCOc1cc(c(cc1OC)Cc1cc(c(OC)cc1C3)OCCO5)C2 [III] (X1-CRGDRGDRGDRGD-OH; C-terminus assumed)
[2]
  water solubility (in words): limited solubility

## c12c3c4c5c1c1c6c7c2c2c8c3c3c9c4c4c%10c5c5c1c1c6c6c%11c7c2c2c7c8c3c3c8c9c4c4c9c%10c5c5c1c1c6c6c%11c2c2c7c3c3c8c4c4c9c5c1c1c6c2c3c41 [fullerene C60]
[3]
  decrease in viability of HEK cells: 10-50%
